Source: ChEMBL document CHEMBL1135741, “Synthesis and biological evaluation of analogues of the peptaibol ampullosporin A” (J Med Chem, 2002)
Where a SMILES comes first, the peptide text is derived from it. [ ]: non-standard residue; d: D form. ξ: configuration not given here. Oic(3aξ,7aξ) = O=C(O)[C@@H]1CC2CCCCC2N1; 2Nal = N[C@@H](Cc1ccc2ccccc2c1)C(=O)O; Igl = N[C@H](C(=O)O)C1Cc2ccccc2C1; Tic = O=C(O)[C@@H]1Cc2ccccc2CN1; Leu(ol) = CC(C)C[C@H](N)CO; Aib = CC(C)(N)C(=O)O

How the values were obtained:
Mus musculus = species on record: Mus musculus; experiment: Evaluated for its ability to modify the core body temperature of mice; No activity; format: functional, organism-based
[1] = tested on: Remotididymella destructiva; experiment: Evaluated for pigment induction capacity based on the Phoma destructiva halo color; No activity; format: functional, organism-based

Row | SMILES | NA (Mus musculus) | NA [1]
1 | CC(=O)N1Cc2ccccc2C[C@H]1C(=O)N[C@@H](C)C(=O)NC(C)(C)C(=O)NC(C)(C)C(=O)N[C@@H](CC(C)C)C(=O)NC(C)(C)C(=O)N[C@@H](CCC(N)=O)C(=O)NC(C)(C)C(=O)NC(C)(C)C(=O)NC(C)(C)C(=O)N[C@@H](CCC(N)=O)C(=O)N[C@@H](CC(C)C)C(=O)NC(C)(C)C(=O)N[C@@H](CCC(N)=O)C(=O)N[C@H](CO)CC(C)C (Ac-[Tic]A[Aib][Aib]L[Aib]Q[Aib][Aib][Aib]QL[Aib]Q[Leu(ol)]) | No activity | –
2 | CC[C@@H](C)[C@H](NC(=O)[C@H](CC(C)C)NC(=O)[C@@H](NC(=O)[C@@H](NC(=O)[C@H](C)NC(=O)[C@H](Cc1c[nH]c2ccccc12)NC(C)=O)[C@@H](C)CC)[C@H](C)CC)C(=O)N[C@@H](CCC(N)=O)C(=O)N[C@H](C(=O)N[C@H](C(=O)N[C@H](C(=O)N[C@@H](CCC(N)=O)C(=O)N[C@@H](CC(C)C)C(=O)N[C@H](C(=O)N[C@@H](CCC(N)=O)C(=O)N[C@H](CO)CC(C)C)[C@@H](C)CC)[C@H](C)CC)[C@@H](C)CC)[C@H](C)CC | No activity | No activity
3 | CC(=O)N[C@@H](C)C(=O)NC(C)(C)C(=O)NC(C)(C)C(=O)N[C@@H](CC(C)C)C(=O)NC(C)(C)C(=O)N[C@@H](CCC(N)=O)C(=O)NC(C)(C)C(=O)NC(C)(C)C(=O)NC(C)(C)C(=O)N[C@@H](CCC(N)=O)C(=O)N[C@@H](CC(C)C)C(=O)NC(C)(C)C(=O)N[C@@H](CCC(N)=O)C(=O)N[C@H](CO)CC(C)C (Ac-A[Aib][Aib]L[Aib]Q[Aib][Aib][Aib]QL[Aib]Q[Leu(ol)]) | No activity | No activity
4 | CC(=O)N1C2CCCCC2C[C@H]1C(=O)N[C@@H](C)C(=O)NC(C)(C)C(=O)NC(C)(C)C(=O)N[C@@H](CC(C)C)C(=O)NC(C)(C)C(=O)N[C@@H](CCC(N)=O)C(=O)NC(C)(C)C(=O)NC(C)(C)C(=O)NC(C)(C)C(=O)N[C@@H](CCC(N)=O)C(=O)N[C@@H](CC(C)C)C(=O)NC(C)(C)C(=O)N[C@@H](CCC(N)=O)C(=O)N[C@H](CO)CC(C)C (some centres not stated) (Ac-[Oic(3aξ,7aξ)]A[Aib][Aib]L[Aib]Q[Aib][Aib][Aib]QL[Aib]Q[Leu(ol)]) | No activity | No activity
5 | CC(=O)N[C@@H](Cc1c[nH]c2ccccc12)C(=O)N[C@@H](C)C(=O)NC(C)(C)C(=O)NC(C)(C)C(=O)N[C@@H](CC(C)C)C(=O)N[C@@H](C)C(=O)N[C@@H](CCC(N)=O)C(=O)NC(C)(C)C(=O)NC(C)(C)C(=O)NC(C)(C)C(=O)N[C@@H](CCC(N)=O)C(=O)N[C@@H](CC(C)C)C(=O)NC(C)(C)C(=O)N[C@@H](CCC(N)=O)C(=O)N[C@H](CO)CC(C)C (Ac-WA[Aib][Aib]LAQ[Aib][Aib][Aib]QL[Aib]Q[Leu(ol)]) | No activity | –
6 | CC(=O)N[C@H](C(=O)N[C@@H](C)C(=O)NC(C)(C)C(=O)NC(C)(C)C(=O)N[C@@H](CC(C)C)C(=O)NC(C)(C)C(=O)N[C@@H](CCC(N)=O)C(=O)NC(C)(C)C(=O)NC(C)(C)C(=O)NC(C)(C)C(=O)N[C@@H](CCC(N)=O)C(=O)N[C@@H](CC(C)C)C(=O)NC(C)(C)C(=O)N[C@@H](CCC(N)=O)C(=O)N[C@H](CO)CC(C)C)C1Cc2ccccc2C1 (Ac-[Igl]A[Aib][Aib]L[Aib]Q[Aib][Aib][Aib]QL[Aib]Q[Leu(ol)]) | No activity | –
7 | CC(=O)N[C@@H](Cc1c[nH]c2ccccc12)C(=O)N[C@@H](C)C(=O)N[C@@H](C)C(=O)N[C@@H](C)C(=O)N[C@@H](CC(C)C)C(=O)N[C@@H](C)C(=O)N[C@@H](CCC(N)=O)C(=O)N[C@@H](C)C(=O)N[C@@H](C)C(=O)N[C@@H](C)C(=O)N[C@@H](CCC(N)=O)C(=O)N[C@@H](CC(C)C)C(=O)N[C@@H](C)C(=O)N[C@@H](CCC(N)=O)C(=O)N[C@H](CO)CC(C)C (Ac-WAAALAQAAAQLAQ[Leu(ol)]) | No activity | No activity
8 | CC(C)C[C@@H](CO)NC(=O)[C@H](CCC(N)=O)NC(=O)C(C)(C)NC(=O)[C@H](CC(C)C)NC(=O)[C@H](CCC(N)=O)NC(=O)C(C)(C)NC(=O)C(C)(C)NC(=O)C(C)(C)NC(=O)[C@H](CCC(N)=O)NC(=O)C(C)(C)NC(=O)[C@H](CC(C)C)NC(=O)C(C)(C)NC(=O)C(C)(C)NC(=O)[C@H](C)N (H-A[Aib][Aib]L[Aib]Q[Aib][Aib][Aib]QL[Aib]Q[Leu(ol)]) | No activity | No activity
9 | CC(=O)N[C@@H](Cc1ccc2ccccc2c1)C(=O)N[C@@H](C)C(=O)NC(C)(C)C(=O)NC(C)(C)C(=O)N[C@@H](CC(C)C)C(=O)NC(C)(C)C(=O)N[C@@H](CCC(N)=O)C(=O)NC(C)(C)C(=O)NC(C)(C)C(=O)NC(C)(C)C(=O)N[C@@H](CCC(N)=O)C(=O)N[C@@H](CC(C)C)C(=O)NC(C)(C)C(=O)N[C@@H](CCC(N)=O)C(=O)N[C@H](CO)CC(C)C (Ac-[2Nal]A[Aib][Aib]L[Aib]Q[Aib][Aib][Aib]QL[Aib]Q[Leu(ol)]) | No activity | –
10 | CC(C)C[C@@H](CO)NC(=O)[C@H](CCC(N)=O)NC(=O)C(C)(C)NC(=O)[C@H](CC(C)C)NC(=O)[C@H](CCC(N)=O)NC(=O)C(C)(C)NC(=O)C(C)(C)NC(=O)C(C)(C)NC(=O)[C@H](CCC(N)=O)NC(=O)C(C)(C)NC(=O)[C@H](CC(C)C)NC(=O)C(C)(C)NC(=O)C(C)(C)NC(=O)[C@H](C)NC(=O)[C@@H](N)Cc1c[nH]c2ccccc12 (H-WA[Aib][Aib]L[Aib]Q[Aib][Aib][Aib]QL[Aib]Q[Leu(ol)]) | No activity | –
11 | CC(=O)N[C@@H](Cc1c[nH]c2ccccc12)C(=O)N[C@@H](C)C(=O)NC(C)(C)C(=O)NC(C)(C)C(=O)N[C@@H](CC(C)C)C(=O)NC(C)(C)C(=O)N[C@@H](CCC(N)=O)C(=O)NC(C)(C)C(=O)NC(C)(C)C(=O)NC(C)(C)C(=O)N[C@@H](CCC(N)=O)C(=O)N[C@@H](CC(C)C)C(=O)NC(C)(C)C(=O)N[C@@H](CCC(N)=O)C(=O)O (Ac-WA[Aib][Aib]L[Aib]Q[Aib][Aib][Aib]QL[Aib]Q-OH) | No activity | No activity
